Measured values taken from ChEMBL document CHEMBL1201862, “PubChem BioAssay data set” (2004).
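Briefly, cells in 96-well plates were exposed to five compound concentrations for 48 h, and endpoints were estimated by linear interpolation. Here, GI50 denotes the concentration required for 50% inhibition of growth.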 The source made the active and inactive calls. Rule as the data show it: active = GI50 up to about 1.1 µM and inactive = higher.

Legend:
Assay in all cases: growth of human tumour cells (NCI), 48 h
OVCAR-4 = system: OVCAR-4
LXFL 529 = system: LXFL 529
M14 = system: M14
HOP-92 = system: HOP-92
T47D = system: T47D
U-251 = system: U-251
HCT-116 = system: HCT-116
M19-MEL = system: M19-MEL
SW-620 = system: SW-620
BT-549 = system: BT-549
DMS-273 = system: DMS-273
SF-295 = system: SF-295
RXF 631 = system: RXF 631
786-0 = system: 786-0
MDA-N = system: MDA-N
Hs-578T = system: Hs-578T
MOLT-4 = system: MOLT-4
HT-29 = system: HT-29
Malme-3M = system: Malme-3M
LOX IMVI = system: LOX IMVI
HOP-18 = system: HOP-18
K562 = system: K562
MDA-MB-231 = system: MDA-MB-231
PC-3 = system: PC-3
TK-10 = system: TK-10
HCT-15 = system: HCT-15
DMS-114 = system: DMS-114
RPMI-8226 = system: RPMI-8226
MDA-MB-435 = system: MDA-MB-435
OVCAR-5 = system: OVCAR-5
SNB-78 = system: SNB-78
SK-MEL-2 = system: SK-MEL-2
CCRF-CEM = system: CCRF-CEM
ACHN = system: ACHN
IGROV-1 = system: IGROV-1
NCI-H522 = system: NCI-H522
COLO 205 = system: COLO 205
SN12C = system: SN12C
DLD-1 = system: DLD-1
NCI/ADR-RES = system: NCI/ADR-RES
A549 = system: A549
HCC 2998 = system: HCC 2998
SK-MEL-28 = system: SK-MEL-28
SK-MEL-5 = system: SK-MEL-5
NCI-H23 = system: NCI-H23
SF-539 = system: SF-539
UACC-257 = system: UACC-257
EKVX = system: EKVX
UACC-62 = system: UACC-62
HOP-62 = system: HOP-62
UO-31 = system: UO-31
KM12 = system: KM12
A498 = system: A498
SK-OV-3 = system: SK-OV-3
SR = system: SR
NCI-H460 = system: NCI-H460
SF-268 = system: SF-268
CAKI-1 = system: CAKI-1
HL-60 = system: HL-60
DU-145 = system: DU-145
SNB-19 = system: SNB-19
RXF 393 = system: RXF 393
OVCAR-8 = system: OVCAR-8
KM-20L2 = system: KM-20L2
SNB-75 = system: SNB-75
OVCAR-3 = system: OVCAR-3
NCI-H226 = system: NCI-H226

Q: What does the source list for `COC(=O)Cc1cc(O)c2c(c1O)C(=O)c1ccccc1C2=O`?
A: GI50 (OVCAR-4): > 100 µM (inactive); GI50 (LXFL 529): 71.4 µM (inactive); GI50 (M14): > 100 µM (inactive); GI50 (HOP-92): 16.1 µM (inactive); GI50 (T47D): > 100 µM (inactive); GI50 (U-251): 27.9 µM (inactive); GI50 (HCT-116): > 71 µM (inactive); GI50 (M19-MEL): > 100 µM (inactive); GI50 (SW-620): > 100 µM (inactive); GI50 (BT-549): > 62.4 µM (inactive); GI50 (DMS-273): > 100 µM (inactive); GI50 (SF-295): 27.6 µM (inactive); GI50 (RXF 631): 35.6 µM (inactive); GI50 (786-0): 21.5 µM (inactive); GI50 (MDA-N): > 100 µM (inactive); GI50 (Hs-578T): 34 µM (inactive); GI50 (MOLT-4): > 84.5 µM (inactive); GI50 (HT-29): > 46.5 µM (inactive); GI50 (Malme-3M): > 74 µM (inactive); GI50 (LOX IMVI): 99.1 µM (inactive); GI50 (HOP-18): > 100 µM (inactive); GI50 (K562): > 100 µM (inactive); GI50 (MDA-MB-231): 26.5 µM (inactive); GI50 (PC-3): > 100 µM (inactive); GI50 (TK-10): 39.4 µM (inactive); GI50 (HCT-15): > 100 µM; GI50 (DMS-114): > 100 µM (inactive); GI50 (RPMI-8226): > 67.5 µM (inactive); GI50 (MDA-MB-435): > 100 µM (inactive); GI50 (OVCAR-5): > 100 µM (inactive); GI50 (SNB-78): 37.6 µM (inactive); GI50 (SK-MEL-2): > 67.5 µM (inactive); GI50 (CCRF-CEM): > 52.6 µM (inactive); GI50 (ACHN): > 57.1 µM (inactive); GI50 (IGROV-1): > 83.8 µM (inactive); GI50 (NCI-H522): > 100 µM (inactive); GI50 (COLO 205): > 100 µM (inactive); GI50 (SN12C): 99.5 µM (inactive); GI50 (DLD-1): > 100 µM (inactive); GI50 (NCI/ADR-RES): 71.9 µM (inactive); GI50 (A549): > 100 µM (inactive); GI50 (HCC 2998): > 100 µM (inactive); GI50 (SK-MEL-28): > 100 µM (inactive); GI50 (SK-MEL-5): 68.2 µM (inactive); GI50 (NCI-H23): > 56 µM (inactive); GI50 (SF-539): 35.9 µM (inactive); GI50 (UACC-257): > 100 µM (inactive); GI50 (EKVX): > 94.2 µM (inactive); GI50 (UACC-62): > 100 µM (inactive); GI50 (HOP-62): 24.3 µM (inactive); GI50 (UO-31): > 100 µM (inactive); GI50 (KM12): > 100 µM (inactive); GI50 (A498): 48.1 µM (inactive); GI50 (SK-OV-3): 58.3 µM (inactive); GI50 (SR): > 100 µM (inactive); GI50 (NCI-H460): > 100 µM (inactive); GI50 (SF-268): 51.1 µM (inactive); GI50 (CAKI-1): > 100 µM (inactive); GI50 (HL-60): > 94.6 µM (inactive); GI50 (DU-145): > 96.2 µM (inactive); GI50 (SNB-19): 38.5 µM (inactive); GI50 (RXF 393): 30.3 µM (inactive); GI50 (OVCAR-8): > 100 µM (inactive); GI50 (KM-20L2): > 100 µM (inactive); GI50 (SNB-75): 20.6 µM (inactive); GI50 (OVCAR-3): > 71.9 µM (inactive); GI50 (NCI-H226): 92.3 µM (inactive)
